# Measured values reported in paper PMC4956231, “Molecular Mechanisms for Drug Hypersensitivity Induced by the Malaria Parasite’s Chloroquine Resistance Transporter” (PLoS Pathogens, 2016).
# Marks after values point to notes of the source that are not given here.
# Tests used:
# 76I,369F-PfCRT^K1 [1] = biological target: T1, 76I,369F-PfCRT^K1 (Plasmodium falciparum, UniProt Q9N623, A220S/K76I/M74I/N326S/N75E/Q271E/R371I/V369F); experiment: Inhibition of PfCRT-mediated [3H]CQ transport in oocytes; type: cell-based; conditions: via 76I,369F-PfCRT^K1 in oocytes
# T1 sequence (Q9N623 whole entry A220S/K76I/M74I/N326S/N75E/Q271E/R371I/V369F): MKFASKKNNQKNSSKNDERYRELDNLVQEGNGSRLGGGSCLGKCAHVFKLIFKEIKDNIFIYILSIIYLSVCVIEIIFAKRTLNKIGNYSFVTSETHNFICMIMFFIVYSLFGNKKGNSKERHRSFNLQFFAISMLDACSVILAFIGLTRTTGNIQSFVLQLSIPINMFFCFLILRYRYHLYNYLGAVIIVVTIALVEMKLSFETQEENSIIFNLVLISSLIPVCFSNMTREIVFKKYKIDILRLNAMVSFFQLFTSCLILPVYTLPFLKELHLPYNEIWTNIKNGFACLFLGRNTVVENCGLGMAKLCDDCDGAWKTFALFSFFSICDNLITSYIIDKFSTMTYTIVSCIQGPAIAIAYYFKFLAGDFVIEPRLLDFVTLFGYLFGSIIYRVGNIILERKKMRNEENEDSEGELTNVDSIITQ
# Description: (§1) For each treatment, 10 oocytes were transferred to a 5 mL polystyrene round bottom tube (Falcon) and washed twice with 3.5 mL of ND96 buffer, with the residual buffer removed by pipette. […] The assay was terminated by removing the reaction buffer with a pipette and washing the oocytes twice with 3.5 mL of ice-cold ND96 buffer. Each oocyte was transferred to a separate well of a white 96-well plate (NUNC or PerkinElmer), incubated overnight at room temperature in 30 μL of 10% SDS, and mixed on an orbital shaker the following day for approximately 5 min. The lysed oocyte was then combined with 150 μL of MicroScint-40 microscintillant (PerkinElmer), the plate covered with a TopSeal-A (PerkinElmer), and the radioactivity measured with a PerkinElmer MicroBeta^2 microplate liquid scintillation analyzer.
# The IC50 values presented in Fig 3A were determined in SigmaPlot by a least-squares fit of the equation y = y min + [(y max—y min)/(1 + ([inhibitor]/IC50)c] to the data, where y is PfCRT-mediated CQ transport, y min and y max are the minimum and maximum values of y, and c is a fitted constant. PfCRT-mediated CQ transport was calculated by subtracting the uptake measured in the control oocytes (oocytes expressing 76K PfCRT^K1) from that in oocytes expressing 76I-PfCRT^K1 or 76I,369F-PfCRT^K1.
# 76K-PfCRT^K1 [2] = experiment: [3H]drug transport into Xenopus oocytes expressing PfCRT; type: cell-based, Plasmodium falciparum; conditions: oocytes expressing 76K-PfCRT^K1; pH 5.0, 50 μM unlabeled amantadine
# Description: as §1
# 163R,356V-PfCRT^K1 = experiment: as above; type: cell-based, Plasmodium falciparum; conditions: oocytes expressing 163R,356V-PfCRT^K1; pH 5.0, 50 μM unlabeled amantadine
# Description: as §1
# PfCRT^K1 = experiment: Trans-stimulation of [3H]CQ uptake by microinjected compound in oocytes; type: cell-based, Plasmodium falciparum
# Description: (§2) A subset of experiments measured the ability of unlabeled amantadine to trans-stimulate the uptake of [^3H]CQ into the oocyte. Immediately prior to the commencement of the experiment, the oocytes (days 3–4 post-injection of the cRNA) were microinjected with either amantadine (estimated intracellular concentrations of 1, 2.5, 5, 10, 15, or 20 mM) or a control treatment (buffer, spermine, or histidine; the estimated intracellular concentrations of spermine and histidine were 5 and 10 mM). The volume injected was 50 nL and the intracellular concentrations were calculated using previous estimates of the volume of stage V-VI oocytes (~400 nL [77]). The resealed oocytes were then incubated at 16–18°C in OR^2+ buffer for approximately 5 min and the influx of [^3H]CQ was measured as described above. […] The Michaelis-Menten equation was then fitted to the data to derive the kinetic parameters for the trans-stimulation of [^3H]CQ transport by amantadine.
# 76K-PfCRT^K1 [3] = experiment: as above; type: cell-based, Plasmodium falciparum; conditions: oocytes expressing 76K-PfCRT^K1, microinjected amantadine
# Description: as §2
# PfCRT^3D7 = experiment: as above; type: cell-based, Plasmodium falciparum; conditions: oocytes expressing PfCRT^3D7, microinjected amantadine
# Description: as §2
# PfCRT^Dd2 [4] = experiment: as above; type: cell-based, Plasmodium falciparum; conditions: oocytes expressing PfCRT^Dd2 microinjected with unlabeled amantadine
# Description: as §2
# noninjected oocytes = experiment: as above; type: cell-based, Xenopus laevis; conditions: microinjected amantadine
# Description: as §2
# 76I,369F-PfCRT^K1 [5] = biological target: T1, 76I,369F-PfCRT^K1; experiment: as above; type: cell-based
# Description: as §2
# 76I-PfCRT^K1 = 76I-PfCRT^K1 (Plasmodium falciparum, UniProt Q9N623, A220S/K76I/M74I/N326S/N75E/Q271E/R371I); experiment: as above; type: cell-based
# 76I-PfCRT^K1, sequence (Q9N623 whole entry A220S/K76I/M74I/N326S/N75E/Q271E/R371I): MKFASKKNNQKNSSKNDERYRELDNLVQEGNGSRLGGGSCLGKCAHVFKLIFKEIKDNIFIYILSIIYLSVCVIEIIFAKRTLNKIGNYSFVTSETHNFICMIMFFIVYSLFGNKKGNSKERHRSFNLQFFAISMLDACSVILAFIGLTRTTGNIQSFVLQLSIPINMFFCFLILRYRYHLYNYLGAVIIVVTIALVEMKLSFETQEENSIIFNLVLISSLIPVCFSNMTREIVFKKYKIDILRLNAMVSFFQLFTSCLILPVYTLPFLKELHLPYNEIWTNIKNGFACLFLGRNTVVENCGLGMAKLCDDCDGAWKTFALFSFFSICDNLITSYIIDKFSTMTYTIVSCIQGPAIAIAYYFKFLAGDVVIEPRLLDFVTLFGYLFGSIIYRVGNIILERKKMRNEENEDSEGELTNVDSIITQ
# Description: as §2
# PfNT1 = PfNT1 (Plasmodium falciparum, UniProt Q8IDM6); experiment: as above; type: cell-based; conditions: oocytes expressing PfNT1, microinjected amantadine
# PfNT1, sequence (Q8IDM6 whole entry): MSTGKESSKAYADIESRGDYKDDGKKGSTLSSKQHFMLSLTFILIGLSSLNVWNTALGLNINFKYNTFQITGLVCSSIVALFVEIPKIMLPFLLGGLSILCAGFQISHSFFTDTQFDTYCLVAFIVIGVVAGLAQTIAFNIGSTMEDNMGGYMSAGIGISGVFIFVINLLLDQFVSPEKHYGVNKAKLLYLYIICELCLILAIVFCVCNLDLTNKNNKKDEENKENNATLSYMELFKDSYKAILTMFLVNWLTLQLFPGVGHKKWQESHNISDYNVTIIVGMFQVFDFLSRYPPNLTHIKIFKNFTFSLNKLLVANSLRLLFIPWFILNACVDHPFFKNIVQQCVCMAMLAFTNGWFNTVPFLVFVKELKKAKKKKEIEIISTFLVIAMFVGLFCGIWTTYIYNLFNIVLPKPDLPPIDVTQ
# Description: as §2
# 76N-PfCRT^K1 = experiment: [3H]drug transport into Xenopus oocytes expressing PfCRT; type: cell-based, Plasmodium falciparum; conditions: transport via 76N-PfCRT^K1 in oocytes, CQ pH 6.0, quinine and quinidine pH 5.0
# Description: as §1
# Note that noninjected oocytes and oocytes expressing PfCRT^3D7 take up [^3H]CQ to similar (low) levels via simple diffusion of the neutral species of the drug; this represents the ‘background’ level of [^3H]CQ accumulation in oocytes (refer to Martin et al. for full data and discussion).
# [6] = tested on: P. falciparum line 106/1^76N; conditions: 106/1^76N (76N-PfCRT^K1); IC50 in line divided by IC50 in drug-sensitive reference strain; cited from earlier work
# PfCRT^Dd2 [7] = experiment: [3H]drug transport into Xenopus oocytes expressing PfCRT; type: cell-based, Plasmodium falciparum; conditions: PfCRT^Dd2-expressing oocytes; [3H]CQ […], pH 5.5, 15 μM unlabeled CQ (S5 Fig)
# Description: as §1
# [8] = tested on: P. falciparum line 106/1^76T; conditions: 106/1^76T (PfCRT^K1); IC50 in line divided by IC50 in drug-sensitive reference strain; cited from earlier work
# [9] = tested on: P. falciparum line 106/1^76I,352K; conditions: 106/1^76I,352K (76I,352K-PfCRT^K1); IC50 in line divided by IC50 in drug-sensitive reference strain; cited from earlier work
# [10] = tested on: P. falciparum line 106/1^76I; conditions: 106/1^76I (76I-PfCRT^K1); IC50 in line divided by IC50 in drug-sensitive reference strain; cited from earlier work
# [11] = tested on: P. falciparum line 106/1^72R,76I; conditions: 106/1^72R,76I (72R,76I-PfCRT^K1); IC50 in line divided by IC50 in drug-sensitive reference strain; cited from earlier work
# [12] = tested on: P. falciparum isolate HON; conditions: HON (PfCRT^3D7); IC50 in line divided by IC50 in drug-sensitive reference strain; cited from earlier work
smiles,measurement,setting,value
NC12CC3CC(CC(C3)C1)C2 [amantadine],IC50,"76I,369F-PfCRT^K1 [1]",174 ± 26 µM
same,[3H]amantadine accumulation relative to background,76K-PfCRT^K1 [2],failed to take up
same,[3H]amantadine accumulation relative to background,"163R,356V-PfCRT^K1",failed to take up
same,Hill coefficient (trans-stimulation of [3H]CQ uptake),PfCRT^K1; PfCRT^K1,1.63 ± 0.12
same,increase in the rate of CQ influx (trans-stimulation),PfCRT^K1; oocytes expressing PfCRT^K1 microinjected with unlabeled amantadine,6.4 ± 0.2 pmol per oocyte/h
same,effect on accumulation of [3H]CQ (trans-stimulation),76K-PfCRT^K1 [3],did not affect
same,effect on accumulation of [3H]CQ (trans-stimulation),PfCRT^3D7,did not affect
same,increase in the rate of CQ influx (trans-stimulation),PfCRT^Dd2 [4],6.7 ± 0.3 pmol per oocyte/h
same,effect on accumulation of [3H]CQ (trans-stimulation),noninjected oocytes,did not affect
same,Hill coefficient (trans-stimulation of [3H]CQ uptake),"76I,369F-PfCRT^K1 [5]; 76I,369F-PfCRT^K1",1.46 ± 0.05
same,increase in the rate of CQ influx (trans-stimulation),"76I,369F-PfCRT^K1 [5]; oocytes expressing 76I,369F-PfCRT^K1 microinjected with unlabeled amantadine",0.43 ± 0.02 pmol per oocyte/h
same,Hill coefficient (trans-stimulation of [3H]CQ uptake),76I-PfCRT^K1; 76I-PfCRT^K1,1.49 ± 0.07
same,increase in the rate of CQ influx (trans-stimulation),76I-PfCRT^K1; oocytes expressing 76I-PfCRT^K1 microinjected with unlabeled amantadine,0.68 ± 0.04 pmol per oocyte/h
same,effect on accumulation of [3H]CQ (trans-stimulation),PfNT1,did not affect
"CCN(CC)CCCC(C)Nc1ccnc2cc(Cl)ccc12 (centres unmarked) [CQ, chloroquine]",Apparent Vmax,76N-PfCRT^K1,"48.0 ± 4.5^c,f (7) pmol per oocyte/h"
same,Km,76N-PfCRT^K1; read-out: Apparent Km,303 ± 5 µM
same,Drug susceptibility (In vitro resistance index),[6],8.60 ± 0.90
same,rate of CQ uptake,PfCRT^Dd2 [7],24 ± 1.3 pmol per oocyte/h
same,Drug susceptibility (In vitro resistance index),[8],12.95 ± 0.95
same,Drug susceptibility (In vitro resistance index),[9],0.91 ± 0.09
same,Drug susceptibility (In vitro resistance index),[10],15.66 ± 2.20
same,Drug susceptibility (In vitro resistance index),[11],1.13 ± 0.07
same,Drug susceptibility (In vitro resistance index),[12],1
